Laboratory results: the COVID Moonshot data (paper PMC11187573), “Identification of SARS-CoV-2 Mpro inhibitors through deep reinforcement learning for de novo drug design and computational chemistry approaches” (RSC Medicinal Chemistry, 2024)

Key:
[1] = target: SARS-CoV-2 Main Protease (SARS-CoV-2) (UniProt P0DTD1)
[2] = target: SARS-CoV-2 Main Protease (SARS-CoV-2) (UniProt P0DTD1); remark: listed apart in the source

`O=C(Cc1ccsc1)N1CCN(c2cc(-c3cccs3)n[nH]2)CC1` showed an IC50 [1] of 78.2 µM, an inhibition ([2]; 20.0 µM) of 13.1% and an inhibition ([2]; 50.0 µM) of 42.2%.
`NCCn1cc(C(=O)N2CC3(CCC3)c3cc(Br)ccc32)cn1` gave an inhibition ([1]; 50.0 µM) of 0%, an inhibition ([2]; 20.0 µM) of -2.84% and an inhibition ([2]; 50.0 µM) of 7.52%.
`O=C(NCCN1CCN(C(=O)CCl)CC1)c1cccc2ccccc12` was tested, and the inhibition ([1]; 50.0 µM) was 23.8%, the inhibition ([2]; 20.0 µM) was 6.97% and the inhibition ([2]; 50.0 µM) was 4.69%.
With `O=C1Nc2ccc(OCCF)cc2C1=O` the IC50 [1] was 45.2 µM, the inhibition ([1]; 50.0 µM) was 56.2% and the inhibition ([2]; 20.0 µM) was -6.86%. It also gave an inhibition ([2]; 50.0 µM) of -2.92%.
In the case of `CS(=O)(=O)N1CCc2ccc(CN3CCN(C(=O)CCl)CC3)cc2C1`, the IC50 [1] is reported as 38.4 µM, the inhibition ([1]; 50.0 µM) is reported as 71.8% and the inhibition ([2]; 20.0 µM) is reported as 29.9%. It also gave an inhibition ([2]; 50.0 µM) of 62.5%.
`C[C@@H]1CS/C(=N\NC(=O)C(=O)C(NC(=O)C2CCCCCC2)C2CCOCC2)N1C` (stereo in doubt) was tested, and the inhibition ([1]; 50.0 µM) was 21% and the inhibition ([2]; 50.0 µM) was 2.64%.
For `COc1ccccc1OCCN1C(=O)C(=O)c2cc(Br)cc(C)c21`, the inhibition ([1]; 50.0 µM) was 48.1%, the inhibition ([2]; 20.0 µM) was -2.64% and the inhibition ([2]; 50.0 µM) was -0.707%.
Compound `Cc1cccc(C)c1NC(=O)CN1C(=O)C(=O)c2ccccc21` has an inhibition ([1]; 50.0 µM) of 0%, an inhibition ([2]; 20.0 µM) of -5.56% and an inhibition ([2]; 50.0 µM) of -2.09%.
Compound `Cc1cccc(COC(=O)c2cccc3c2NC(=O)C3=O)c1` has an IC50 [1] of 17.3 µM, an inhibition ([1]; 50.0 µM) of 83.7% and an inhibition ([2]; 20.0 µM) of -1.1%. For the same compound, the inhibition ([2]; 50.0 µM) was 0.0384%.
Work on `CC(C)(C)c1ccc(-c2nnc(Sc3cnc([N+](=O)[O-])s3)o2)cc1` yielded an IC50 [1] of 0.164 µM, an IC50 [2] of 4.16 µM and an inhibition ([2]; 20.0 µM) of 8.3%. The inhibition ([2]; 50.0 µM) was 69.9%.
With `O=C(CCl)N1CCN(Cc2cnc(-c3ccccc3)nc2)CC1` the inhibition ([1]; 50.0 µM) was 0%, the inhibition ([2]; 20.0 µM) was 6.18% and the inhibition ([2]; 50.0 µM) was 15.7%.
For `N#C/C(C(=O)Nc1ccc(F)cc1)=C(/O)c1ccc(Cl)cc1`, the IC50 [1] was 0.234 µM, the inhibition ([1]; 50.0 µM) was 100% and the inhibition ([2]; 50.0 µM) was 22.2%.
For `CN(CCC(N)=O)C(=O)C(=O)N1Cc2ccccc2C(c2ccccc2)C1` (centres undefined), the inhibition ([1]; 50.0 µM) was 0%, the inhibition ([2]; 20.0 µM) was -0.756% and the inhibition ([2]; 50.0 µM) was -0.803%.
In the case of `CC(C)(C)NC(=O)CN1C(=O)C(=O)c2cccc(Br)c21`, the inhibition ([1]; 50.0 µM) is reported as 0%, the inhibition ([2]; 20.0 µM) is reported as -2.41% and the inhibition ([2]; 50.0 µM) is reported as 1.28%.
With `O=C(Nc1ccc([N+](=O)[O-])cc1)c1cc(Cl)ccc1O` the inhibition ([1]; 20.0 µM) was 2.8%, the inhibition ([1]; 50.0 µM) was 6% and the inhibition ([2]; 20.0 µM) was -7.24%. The inhibition ([2]; 50.0 µM) was -15.6%.
`CC(C)Cn1cc(NC(=O)NCCc2ccc(Cl)cc2)c2ccccc2c1=O` showed an IC50 [1] of 95.9 µM, an inhibition ([2]; 20.0 µM) of 22.5% and an inhibition ([2]; 50.0 µM) of -1.58%.
With `C=C1CCC[C@H]2[C@](C)(CC3=C(O)C(=O)C=C(OC)C3=O)[C@@H](C)CC[C@]12C` (stereo in doubt) the inhibition ([1]; 50.0 µM) was 2.35%.
In the case of `O=C(c1cc(=O)[nH]c2ccccc12)N1CCN(c2cccc(Cl)c2)CC1`, the IC50 [1] is reported as 2.19 µM and the inhibition ([1]; 50.0 µM) is reported as 65.7%.
`Cc1cc(C(=O)CCl)c(C)n1NC(=O)c1n[nH]c(=O)c2ccccc12` gave an inhibition ([1]; 50.0 µM) of 42.3%.
Compound `COc1ccc2c(NC(=O)Cc3cccc(Cl)c3)[nH]nc2c1` has an IC50 [1] of 52 µM.
`CC(C)[C@H](NC(=O)OCc1ccccc1)C(=O)NC(C=O)Cc1ccccc1` (stereo in doubt) gave an inhibition ([1]; 50.0 µM) of 0%.
`Cc1ccncc1NC(=O)Cc1cc(Cl)cc(NS(N)(=O)=O)c1` was tested, and the IC50 [1] was 14.5 µM and the inhibition ([1]; 50.0 µM) was 87.9%.
For `C[C@@H]1C[C@@H](C(=O)Nc2cncc3ccccc23)c2cc(Cl)ccc2O1` (stereo in doubt), the IC50 [1] was 0.524 µM.
With `COc1cc(COc2cc(Cl)cc(CC(=O)Nc3cnccc3C)c2)ccc1OC(F)F` the IC50 [1] was 7.39 µM.
With `Cn1c(C(NC(=O)Cc2cc3ccccc3[nH]2)c2cccc(Cl)c2)nc2ccccc21` (centres undefined) the IC50 [1] was 31.4 µM.
`O=C(Cn1nnc2ccccc21)N(Cc1cccc(Cl)c1)c1ccc(N2CCOCC2)cc1` showed an IC50 [1] of 3.79 µM.
`C=CC(=O)N(c1ccc(I)cc1)C(C(=O)Nc1ccc(Cl)cc1)c1cncnc1` (centres undefined) gave an IC50 [1] of 2.75 µM.
`N#Cc1ncn(CC(=O)Nc2ccc(Br)cc2Cl)n1` gave an IC50 [1] of 2.87 µM.
With `O=C(COc1cccc(Cl)c1)Nc1cncc2ccccc12` the IC50 [1] was 6.02 µM.
`O=C(c1cncc2ccccc12)N1CCN(c2cccc(Cl)c2)CC1` was tested, and the IC50 [1] was 0.833 µM.
With `COc1cc(Cl)cc2c1OCC[C@@H]2C(=O)Nc1cncc2ccccc12` (stereo in doubt) the IC50 [1] was 10.2 µM.
`COc1ccc2c(=O)cc(-c3ccc(OCc4ccccc4)cc3)oc2c1` gave an inhibition ([1]; 50.0 µM) of 10.7%.
`O=C(Cc1cccc(Cl)c1)Nc1cncc2c1CCC2` showed an IC50 [1] of 4.65 µM.
`Cc1ccn2cnnc2c1NC(=O)Cc1cccc(Cl)c1` showed an IC50 [1] of 83.4 µM.
With `O=C(Nc1cccc(F)c1)[C@@H](c1ccccc1)N1Cc2ccccc2C1=O` (stereo in doubt) the IC50 [1] was 59.9 µM.
In the case of `O=c1c(O)c(-c2cc(OCc3ccccc3)ccc2OCc2ccccc2)oc2ccccc12`, the inhibition ([1]; 50.0 µM) is reported as 0.254%.
Compound `O=C(c1cc(=O)[nH]c2ccccc12)N1CCN(c2cccc(C(F)(F)F)c2)CC1` has an IC50 [1] of 5.65 µM and an inhibition ([1]; 50.0 µM) of 71%.
In the case of `CCCCOc1ccc(Cl)cc1CC(=O)Nc1cnccc1C`, the IC50 [1] is reported as 15.7 µM.
Compound `O=C(Cc1cccc(Cl)c1)Nc1nnc2ccccn12` has an IC50 [1] of 93.9 µM.
With `Cc1cc(C(F)(F)F)nc2n[nH]c(NC(=O)C3CCOc4ccc(Cl)cc43)c12` (centres undefined) the IC50 [1] was 98.1 µM.
`COc1ccccc1OCCC(=O)Nc1cncc2ccccc12` gave an IC50 [1] of 85.4 µM.
Compound `O=C(Nc1cc(=O)[nH]c2ccccc12)C1CCOc2ccc(Cl)cc21` (centres undefined) has an IC50 [1] of 48 µM.
`Cc1ccncc1NC(=O)Cc1cc(Cl)cc(OCc2n[nH]c3ccccc23)c1` showed an inhibition ([1]; 50.0 µM) of 9.6%.
`CC(C)C1=C(O)C(=O)C2=C(CC[C@H]3C(C)(C)CCC[C@]23C)C1=O` (stereo in doubt) was tested, and the inhibition ([1]; 50.0 µM) was 10.2%.
With `CC(=O)NCc1cc(Cl)cc(CC(=O)Nc2cnccc2C)c1` the IC50 [1] was 55.5 µM.
For `CCCCN1C(=O)C(=O)c2cc(Br)cc(C)c21`, the IC50 [1] was 57.6 µM.
With `Nc1nn(C(=O)Cc2cccc(Cl)c2)c2cccc(F)c12` the IC50 [1] was 52.6 µM.
`Cc1oncc1C(=O)Nc1ccc(S(F)(F)(F)(F)F)cc1` showed an inhibition ([1]; 50.0 µM) of 0%.
`COc1ccc2nnn(CC(=O)N(Cc3ccccn3)c3ccc(C4CCNCC4)cc3)c2c1` showed an IC50 [1] of 32.2 µM and an inhibition ([1]; 50.0 µM) of 94.8%.
`CC12CCCC(O1)c1c(cc3c(c1O)C(=O)c1c(O)cc(O)cc1C3=O)O2` (centres undefined) showed an inhibition ([1]; 50.0 µM) of 26.4%.
`O=C(Nc1cncc2ccccc12)C1CCOc2ccc(Br)cc21` (centres undefined) showed an inhibition ([1]; 50.0 µM) of 90.6%.
Work on `Cc1c(N)cncc1NC(=O)Cc1cccc(Cl)c1` yielded an IC50 [1] of 8.2 µM.
With `COc1ccc(N(Cc2cccc(Cl)c2)C(=O)Cn2nnc3ccccc32)cc1` the IC50 [1] was 5.65 µM.
Work on `O=C(c1cc(=O)cc[nH]1)N1CCN(c2cccc(Cl)c2)CC1` yielded an IC50 [1] of 58.9 µM.
